Laboratory results from US11953435B2, “Zinc-responsive fluorophores” (Northwestern University, priority 2019, dated 2024).
“Also recorded” adds a separate entry of the source.

How the values were obtained:
[1] = test system: MII egg; conditions: previously reported; cited from earlier work
[2] = previously reported value; read-out: zinc dissociation constant (reported); cited from earlier work
[3] = test system: C. elegans; assay: Confocal imaging of zinc in C. elegans worms; type: in vivo
Source text: [formula] [formula] where r(t) is the anisotropy, P(t) is the polarization, Ivv and Ivh are intensities with polarization in the vertical plane and the excitation in the vertical and horizontal planes respectively, Ihv and Ihh are intensities with polarization in the horizontal plane and the excitation in the vertical and horizontal planes respectively, and G is a g-factor that corrects for instrument sensitivity in the horizontal and vertical planes. Metal content of NMR samples. Inductively coupled plasma mass spectrometry (ICP-MS) was performed on a Thermo iCAP Q ICP-MS. 1 mg/mL of ZincBY-1 or ZincBY-4 in acetonitrile-d3 or acetonitrile-d3 only was evaporated overnight at 70° C. 150 μL of HNO3 was added and the samples were digested overnight at 70° C. Samples were diluted to a final nitric acid concentration of 3%. […] Only ^56Fe and ^64Zn were detected in the samples above background levels. […] Calculated spectra were broadened by Gaussians of width 0.2 eV, and red shifted by 0.64 eV to better match the experimental spectra per Momeni and Brown (Ref. B7; incorporated by reference in its entirety). […] Wildtype strain Bristol N2 was used as a control strain in fluorescence microscopy experiments. […] III; ruIs57[unc-119(+) pie-P1^promoter:GFP::tubulin] was used as a marker for cortical granules in fluorescence microscopy experiments. […]

## COc1ccc2n1[B-](F)(F)[N+]1=C(N(CCN(Cc3ccccn3)Cc3ccccn3)Cc3ccccn3)C=CC1=C2c1c(C)cc(C)cc1C [ZincBY-1, reference compound]
[1]
  working concentrations lower than those employed with other probes: 20-200 fold
[2]
  Kd: 2.6 nM

## CC(=O)NCCOc1ccc2n1[B-](F)(F)[N+]1=C(N(CCN(Cc3ccccn3)Cc3ccccn3)Cc3ccccn3)C=CC1=C2c1c(C)cc(C)cc1C [ZincBY-4, N-(2-((7-((2-(bis(pyridin-2-ylmethyl)amino)ethyl)(pyridin-2-ylmethyl)amino)-5,5-difluoro-10-mesityl-5H-5λ4,6λ4-dipyrrolo[1,2-c:2′,1′-f][1,3,2]diazaborinin-3-yl)oxy)ethyl)acetamide]
[3]; ZincBY-4 stained worms
  fluorescence pattern in stained worms: pattern of increasing fluorescence intensity as oocytes progress through the gonad
[3]; single excitation at 488 nm
  spectral overlap with GFP in C. elegans: small amount of ZincBY-4 emission detected in the 495-530 nm emission channel; also recorded: very little overlap of ZincBY-4 in the GFP detection channel
